From patent US20260035367A1 (Celgene Corporation, priority 2021, published 2026)
Counter-ions that a name gives are not always drawn. Like-named read-outs stand apart in the source and are kept apart here.

Assays:
[1] = system: IL-2 secretion by human effector memory T cells (TEM); test: Effector memory T cells IL-2 release assay (CD3/CD28 stimulation, HTRF IL-2 detection); type: cell-based; conditions: 24 h; for IC50: Homo sapiens, T-cell
Summary of the method: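 Human effector memory T cells from healthy-donor buffy coats were exposed in triplicate to ten semi-log doses of compound in 0.1% DMSO. The cells were stimulated and incubated 24 h at 37 °C. Secreted IL-2 in the supernatant was measured by HTRF.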

[2] = target: T1, Recombinant human PKC-delta (His-tagged 345-676) (Homo sapiens, UniProt Q05655); test: PKC-delta inhibition assay (HTRF KinEASE kit); type: biochemical; conditions: ratio, PKC-theta vs PKC-delta HTRF; for PKC-theta/PKC-delta selectivity (binned): binned A to G
T1 construct: PKC-delta (His-tagged 345-676); His
T1 sequence (Q05655 345-676): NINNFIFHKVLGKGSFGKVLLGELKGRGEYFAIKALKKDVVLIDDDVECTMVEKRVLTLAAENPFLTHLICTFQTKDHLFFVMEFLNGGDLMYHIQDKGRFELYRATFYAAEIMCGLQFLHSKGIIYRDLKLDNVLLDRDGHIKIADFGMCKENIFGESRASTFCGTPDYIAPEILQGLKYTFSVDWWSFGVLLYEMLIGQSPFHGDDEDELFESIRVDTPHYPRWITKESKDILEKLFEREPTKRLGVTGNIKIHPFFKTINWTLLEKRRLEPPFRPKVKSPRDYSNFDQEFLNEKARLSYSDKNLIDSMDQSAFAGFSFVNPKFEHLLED

[3] = target: T2, Recombinant human PKC-theta (His-tagged 362-706) (Homo sapiens, UniProt Q04759); test: PKC-theta inhibition assay (HTRF KinEASE kit); type: biochemical; conditions: STK substrate 525 nM
T2 construct: Recombinant human PKC-theta (His-tagged 362-706); His
T2 sequence (Q04759 362-706): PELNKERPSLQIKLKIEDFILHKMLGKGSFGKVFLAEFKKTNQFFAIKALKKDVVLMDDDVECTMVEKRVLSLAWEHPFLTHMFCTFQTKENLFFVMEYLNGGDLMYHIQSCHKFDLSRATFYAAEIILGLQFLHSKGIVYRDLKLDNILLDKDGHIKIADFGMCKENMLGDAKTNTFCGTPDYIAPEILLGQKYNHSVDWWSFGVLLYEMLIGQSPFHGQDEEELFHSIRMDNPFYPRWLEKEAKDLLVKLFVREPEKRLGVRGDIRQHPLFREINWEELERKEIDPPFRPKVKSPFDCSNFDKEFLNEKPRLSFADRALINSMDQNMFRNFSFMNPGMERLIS
Summary of the method: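 IC50 values were from 4-parameter logistic fits of percent inhibition, based on acceptor/donor HTRF ratios over 10 semi-log compound doses. Kinase reactions, started with substrate plus ATP, ran 30 min at 25 °C in buffer supplemented with 10 mM MgCl2, 1 mM DTT and 0.1% Tween 20; detection lasted 2 h.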

[4] = binned A to G, read-out: PKC-theta IL2 pIC50 (binned) (converted)
[5] = read-out: PKC-theta IL2 pIC50 (converted)
[6] = ATP 6.5 μM, binned A to H, read-out: PKC-theta HTRF pIC50 (binned) (converted)
[7] = ATP 6.5 μM, read-out: PKC-theta HTRF pIC50 (converted)
[8] = PKC-theta HTRF pIC50 (binned), ATP 6.5 μM, binned A to H
[9] = PKC-theta HTRF pIC50, ATP 6.5 μM

Structure (SMILES)	IC50 [1, 4]	IC50 [1, 5]	PKC-theta/PKC-delta selectivity [2]	PKC-theta/PKC-delta selectivity (binned) [2]	IC50 [3, 6]	IC50 [3, 7]	IC50 [3, 8]	IC50 [3, 9]	PKC-theta IL2 pIC50 [1]	PKC-theta IL2 pIC50 (binned) ([1]; binned A to G)
CC[C@]1(C)C(=O)Nc2nccc(-c3cc(Cl)cc(N4CCNC[C@H]4C)n3)c21 (single isomer, unassigned) [Example 165]	31.6 to 100 nM	63.1 nM	12	D (a ratio of between 10 and 20)	3.16 to 10 nM	6.31 nM	–	–	–	–
CC1(C)C(=O)Nc2nccc(-c3cc(C(F)(F)F)cc(N4CCNC[C@H]4CO)n3)c21 [Example 161]	31.6 to 100 nM	50.1 nM	12	D (a ratio of between 10 and 20)	1 to 3.16 nM	2.51 nM	–	–	–	–
CC[C@H]1CN(c2ccc(Cl)c(-c3ccnc4c3[C@](C)(O)C(=O)N4)n2)CCN1 (single isomer, unassigned) [Example 128]	100 to 316 nM	316 nM	5	F (a ratio of between 1 and 5)	10 to 31.6 nM	25.1 nM	–	–	–	–
CC1(C)C(=O)Nc2nccc(-c3cc(Cl)cc(N4CCNCC4)n3)c21 [Example 65]	100 to 316 nM	200 nM	14	D (a ratio of between 10 and 20)	1 to 3.16 nM	2 nM	–	–	–	–
CC1(C)C(=O)Nc2nccc(-c3cccc(N4CCNCC4)c3Cl)c21 [Example 48]	> 1000 nM	10000 nM	1	G (a ratio of 0 to 1)	> 1000 nM	1580 nM	–	–	–	–
C[C@@]1(O)C(=O)Nc2nccc(-c3cc(C(F)(F)F)cc(N4CCNC(C(F)F)C4)n3)c21 (single isomer, unassigned) [Example 123]	> 1000 nM	1580 nM	25	C (a ratio of between 20 and 30)	10 to 31.6 nM	20 nM	–	–	–	–
CC[C@@H]1CNCCN1c1cc(Cl)cc(-c2ccnc3c2[C@](C)(O)C(=O)N3)n1 (single isomer, unassigned) [Example 139]	1 to 3.16 nM	2 nM	1	F (a ratio of between 1 and 5)	0.316 to 1 nM	0.794 nM	–	–	–	–
O=C1Cc2c(-c3cccc(N4CCNCC4)c3)ccnc2N1 [Example 4]	> 1000 nM	5010 nM	8	E (a ratio of between 5 and 10)	100 to 316 nM	251 nM	–	–	–	–
CCC1(C)C(=O)Nc2nccc(-c3cc(C(F)(F)F)cc(N4CCNC[C@H]4C)n3)c21 (stereo partly drawn) [Example 144]	10 to 31.6 nM	25.1 nM	23	C (a ratio of between 20 and 30)	1 to 3.16 nM	1.58 nM	–	–	–	–
C[C@H]1CNCCN1c1cc(F)cc(-c2ccnc3c2C(C)(C)C(=O)N3)c1 [Example 30]	316 to 1000 nM	794 nM	2	F (a ratio of between 1 and 5)	31.6 to 100 nM	31.6 nM	–	–	–	–
CC[C@H]1CN(c2cc(Cl)cc(-c3ccnc4c3C(C)(OC)C(=O)N4)n2)CCN1 (stereo partly drawn) [Example 130]	100 to 316 nM	158 nM	8	E (a ratio of between 5 and 10)	3.16 to 10 nM	7.94 nM	–	–	–	–
CC1(C)C(=O)Nc2nccc(-c3cc(F)cc(CN4CCNCC4)c3)c21 [Example 32, 4-[3-fluoro-5-(piperazin-1-ylmethyl)phenyl]-3,3-dimethyl-1H-pyrrolo[2,3-b]pyridin-2-one; dihydrochloride]	> 1000 nM	3980 nM	3	F (a ratio of between 1 and 5)	–	–	100 to 316 nM	200 nM	–	–
C[C@@]1(O)C(=O)Nc2nccc(-c3cc(C(F)(F)F)cc(N4CCNC(CF)C4)n3)c21 (single isomer, unassigned) [Example 109]	316 to 1000 nM	794 nM	29	C (a ratio of between 20 and 30)	3.16 to 10 nM	3.98 nM	–	–	–	–
CC1(C)C(=O)Nc2nccc(-c3cccc(OC4CCNCC4)c3)c21 [Example 47]	> 1000 nM	2510 nM	2	F (a ratio of between 1 and 5)	100 to 316 nM	316 nM	–	–	–	–
C[C@@]1(O)C(=O)Nc2nccc(-c3cc(C(F)(F)F)cc(N4CC5CC(C4)N5)n3)c21 (single isomer, unassigned) [Example 149]	316 to 1000 nM	398 nM	15	D (a ratio of between 10 and 20)	10 to 31.6 nM	25.1 nM	–	–	–	–
CC1(O)C(=O)Nc2nccc(-c3cc(N4CCNCC4)cc(C(F)(F)F)c3)c21 (stereo not drawn) [Example 56]	316 to 1000 nM	794 nM	14	D (a ratio of between 10 and 20)	10 to 31.6 nM	20 nM	–	–	–	–
C[C@H]1CNCCN1c1cccc(-c2ccnc3[nH]c(=O)[nH]c23)c1 [Example 8, 7-[3-[(2S)-2-methylpiperazin-1-yl]phenyl]-1,3-dihydroimidazo[4,5-b]pyridin-2-one dihydrochloride]	> 1000 nM	3980 nM	2	F (a ratio of between 1 and 5)	–	–	316 to 1000 nM	398 nM	–	–
CC[C@H]1CN(c2ccc(Cl)c(-c3ccnc4c3C(O)(CC)C(=O)N4)n2)CCN1 (stereo partly drawn) [Example 132]	316 to 1000 nM	1000 nM	4	F (a ratio of between 1 and 5)	100 to 316 nM	100 nM	–	–	–	–
C[C@@]1(O)C(=O)Nc2nccc(-c3cc(C(F)(F)F)cc(N4CCNC5CC54)n3)c21 (single isomer, unassigned) [Example 96]	100 to 316 nM	200 nM	10	E (a ratio of between 5 and 10)	3.16 to 10 nM	5.01 nM	–	–	–	–
CC1(C)C(=O)Nc2nccc(-c3cc(Cl)cc(N4CCNCC4C(F)F)n3)c21 (stereo not drawn) [Example 159]	100 to 316 nM	100 nM	9	E (a ratio of between 5 and 10)	1 to 3.16 nM	2 nM	–	–	–	–
CC1(O)C(=O)Nc2nccc(-c3cc(F)cc(N4CCNCC4)c3)c21 (stereo not drawn) [Example 46]	100 to 316 nM	251 nM	3	F (a ratio of between 1 and 5)	10 to 31.6 nM	12.6 nM	–	–	–	–
O=C1Nc2nccc(-c3cc(F)cc(N4CCNCC4)c3)c2C12CC2 [Example 34]	> 1000 nM	3980 nM	2	F (a ratio of between 1 and 5)	> 1000 nM	1000 nM	–	–	–	–
C[C@@H]1CNCCN1c1cc(F)cc(-c2ccnc3c2C(C)(O)C(=O)N3)c1 (stereo partly drawn) [Example 59]	100 to 316 nM	126 nM	5	F (a ratio of between 1 and 5)	3.16 to 10 nM	5.01 nM	–	–	–	–
C[C@H]1NCCN(c2cc(C(F)(F)F)cc(-c3ccnc4c3C(C)(C)C(=O)N4)n2)[C@H]1C [Example 168]	–	–	14	D (a ratio of between 10 and 20)	0.316 to 1 nM	0.501 nM	–	–	8.1	B (a measured pIC50 of between 8.0 and 8.5)
C[C@@H]1CN(c2cc(C(F)(F)F)cc(-c3ccnc4c3C(C)(C)C(=O)N4)n2)[C@H](C)CN1 [Example 178]	31.6 to 100 nM	63.1 nM	20	D (a ratio of between 10 and 20)	1 to 3.16 nM	3.16 nM	–	–	–	–
CC1(C)CN(c2cc(Cl)cc(-c3ccnc4c3[C@](C)(O)C(=O)N4)n2)CCN1 (single isomer, unassigned) [Example 133]	31.6 to 100 nM	50.1 nM	10	D (a ratio of between 10 and 20)	1 to 3.16 nM	2.51 nM	–	–	–	–
CC1(O)C(=O)Nc2nccc(-c3cc(C(F)(F)F)cc(N4CCNCC4)n3)c21 (stereo not drawn) [Example 80]	31.6 to 100 nM	79.4 nM	12	D (a ratio of between 10 and 20)	3.16 to 10 nM	6.31 nM	–	–	–	–
